The IC50 is the concentration needed to halve the response being measured.

In this test the target is T1, BAP1 (Homo sapiens, UniProt Q92560).
T1 sequence (Q92560 1-729): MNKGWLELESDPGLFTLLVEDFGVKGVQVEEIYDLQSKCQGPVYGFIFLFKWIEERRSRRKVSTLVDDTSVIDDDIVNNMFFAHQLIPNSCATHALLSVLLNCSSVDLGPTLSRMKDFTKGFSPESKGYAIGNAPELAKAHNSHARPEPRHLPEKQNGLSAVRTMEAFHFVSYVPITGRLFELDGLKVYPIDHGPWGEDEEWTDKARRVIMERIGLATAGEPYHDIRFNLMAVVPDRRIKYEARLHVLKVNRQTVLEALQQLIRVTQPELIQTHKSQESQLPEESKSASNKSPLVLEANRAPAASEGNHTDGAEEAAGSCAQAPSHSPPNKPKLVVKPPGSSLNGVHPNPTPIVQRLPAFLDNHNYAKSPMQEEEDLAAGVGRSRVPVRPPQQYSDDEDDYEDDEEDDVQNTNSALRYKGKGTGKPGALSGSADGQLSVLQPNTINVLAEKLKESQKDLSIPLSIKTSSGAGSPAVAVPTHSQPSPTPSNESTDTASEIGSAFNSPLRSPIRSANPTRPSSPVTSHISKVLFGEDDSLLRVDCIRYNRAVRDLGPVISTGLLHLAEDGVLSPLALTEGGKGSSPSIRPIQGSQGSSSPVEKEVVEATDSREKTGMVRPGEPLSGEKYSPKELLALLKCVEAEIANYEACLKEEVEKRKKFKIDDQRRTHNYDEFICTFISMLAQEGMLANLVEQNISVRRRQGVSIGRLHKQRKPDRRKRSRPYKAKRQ
The test can be described thus: competition of Biotin-Ahx-Ub-VS labelling, DIA LC-MS/MS. Format: biochemical. Particulars: covalent; lysate, 3 h preincubation, 0.5 μM ubiquitin probe.

With `O=C(CCl)N1CCCC1c1ccc2c(c1)OCCO2` (stereo not shown) [compound 3, fragment 3], the IC50 is ~10 µM.
